Measurements reported in patent US20040009464A1, “Methods for identifying compounds for inhibition of neoplastic lesions, and pharmacetical compositions containing such compounds” (priority 1998, published 2004).
Where a name gives a salt, the structure may show the parent alone. Read-outs that look alike come from different tables or passages of the source.

Key:
[1] = rat, in vivo
[2] = Single, escalating dose human safety study; format: in vivo; settings: oral
[3] = 28-day study in rats; format: in vivo
[4] = dog, in vivo
[5] = system: LNCaP prostate tumor cell line; assay: Histone-associated DNA fragmentation in LNCaP cells; format: cell-based; settings: 50 μM free base, up to 4 days
Protocol: (§1) The androgen-sensitive prostate tumor cell line, LNCAP (from ATCC (Rockville, Md.)) was propagated under standard conditions using […] medium containing 5% fetal calve serum and 2 mM glutamine. Primary prostate epithelial cell cultures (PrEC) derived from normal prostate (from Clonetics Inc. (San Diego, Calif.)) were grown under the same conditions as the tumor cell line except a serum-free medium optimized for the growth of such cultures was used (Clonetics Inc). For the experiments, LNCaP or PrEC cells were seeded in 96 well plates at a density of 10,000 cells per well. After 24 hours, the cells were treated with either vehicle (0.1% DMSO) or 50 μM Compound I (freebase) solubilized in DMSO. After various drug treatment times (4, 24, 48, 72, or 99 hours) the cells were lysed and processed for measurement of histone-associated DNA as an indicator of apoptotic cell death (see, Piazza et al., Cancer Research 57: 2452-2459, 1997).
(§2) This is in marked contrast to conventional chemotherapeutics that induce apoptosis or necrosis in rapidly growing normal and neoplastic cells alike.

[6] = system: MDA-MB-231; assay: Growth inhibition, neutral red assay, MDA-MB-231; format: cell-based, human; settings: free base, five days
Protocol: (§3) Compound I's activity is not confined to activity against colon cancer cell lines or animal models of colon cancer. It has a broad range of anti-neoplastic effects in various neoplastic cell lines. Various types of human cancer cell lines were propagated under sterile conditions in RPMI 1640 medium with 10% fetal bovine serum, […] L-glutamine and sodium bicarbonate. To determine growth inhibitory effects of Compound I, cells were seeded in 96-well plates at a density of 1000 cells per well. Twenty-four hours after plating, the cells were dosed with various concentrations of the free base of Compound I solubilized in DMSO (final concentration 0.1%). The effect of the drug on tumor cell growth was determined using the neutral red cytotoxicity assay following five days of continuous treatment. Neutral red is a dye that is selectively taken up by viable cells by an ATP-dependent transport mechanism.

[7] = system: PrEC primary prostate epithelial cells derived from normal prostate; assay: Histone-associated DNA fragmentation in PrEC cells; format: cell-based; settings: 50 μM, up to 4 days
Protocol: as §1, §2

[8] = Seven-day dose-range finding study in rats; format: in vivo; settings: seven days
[9] = system: aberrant crypt foci (AOM-induced carcinogenesis); assay: Azoxymethane-induced aberrant crypt foci (ACF) model in rats; format: in vivo, male Fisher 344 rats; settings: for Mean ACF/colon (+SE): free base, 5 weeks
Protocol: The growth inhibition IC50 value obtained for Compound I was 0.7 μM in the SW-480 cell line. […] This established rodent model of azoxymethane (“AOM”)-induced carcinogenesis was used to assess the effects of Compound I (free base and salt) on colon cancer development in vivo. ACF are precursors to colonic tumors, and ACF inhibition is predictive of chemo-preventive efficacy.
In the rats in this experiment, ACF initiation was achieved by two consecutive weekly injections of the carcinogen. Compound I was administered one week prior to ACF initiation and for the duration of the experiment. ACFs were scored after 5 weeks of treatment. Compound I was administered orally to male Fisher 344 rats in the rat chow. Daily food consumption (mg/kg body weight) varied over the course of the study, and therefore Compound I dose was expressed a grams per kg of diet to provide a basis of comparison between doses. […] The experimental groups gained less weight than the controls, which was indicative of bloavailability. However, the weight differences were less than 10% and not considered to affect ACF formation.
The free base of Compound I inhibited ACF formation as measured by a reduction of crypts per colon. With the exception of the low dose group (only 0.5 g/kg diet), the differences between treatment and control groups were substantial, and statistically significant in the case of the 1.0 and 2.0 g/kg diet group.

[10] = system: NCI-H322M; assay: Growth inhibition, neutral red assay, NCI-H322M; format: cell-based, human; settings: free base, five days
Protocol: as §3

[11] = system: PC-3; assay: Growth inhibition, neutral red assay, PC-3; format: cell-based, human; settings: free base, five days
Protocol: as §3

## CC1=C(CC(=O)NCc2ccccc2)c2cc(F)ccc2/C1=C\c1ccncc1 [Compound I, (Z)-5-fluoro-2-methyl-(4-pyridylidene)-3-(N-benzyl)indenylacetamide hydrochloride]
[1]; ip, 1000 mg/kg
  toxicity findings: reduced body weight gain, with mesenteric adhesions seen in some animals
[1]; po, 4000 mg/kg
  body weight gain: body weight gains were slightly reduced
[2]
  side effects: no significant side effects at any dose
[3]; 28 days, 2000 mg/kg/day
  organ weights: statistically significant increase in liver weights
[3]; 28 days, 50, 500 and 2000 mg/kg/day
  clinical observations: no abnormal clinical observations
[4]; 1000 mg/kg
  signs of toxicity: no signs of toxicity
[4]; 1000 mg/kg/day
  drug-related effects: At no time in either dosing phase were any obvious signs of drug-related effects observed
[5]
  histone-associated fragmented DNA: significant increase in fragmented DNA
[6]
  GI90 μM MDA-MB-231: 77.6 µM
[7]
  DNA fragmentation: did not affect DNA fragmentation
[8]; 50 mg/kg/day
  toxicity findings: no observable signs of toxicity
[8]; 500 mg/kg/day
  toxicity findings: an increase in absolute and relative liver weights in female rats
[8]; 2000 mg/kg/day
  toxicity findings: labored breathing and/or abnormal respiratory sounds, decreased weights gains and food consumption in male rats, and increased liver weights in female rats
[9]; 0.5 g/kg diet
  Mean ACF/colon (+SE): 149 ± 14 ACF/colon
[9]; 1 g/kg diet
  Mean ACF/colon (+SE): 111 ± 9 ACF/colon
[9]; 1.5 g/kg diet
  Mean ACF/colon (+SE): 132 ± 4 ACF/colon
[9]; 2.0 g/kg diet
  Mean ACF/colon (+SE): 107 ± 15 ACF/colon
[9]; rats, compound in chow
  body weight difference versus controls: less than 10%
[10]
  GI90 μM NCI-H322M: 13.2 µM
[11]
  GI90 μM PC-3: 82.5 µM
